From patent US10975056B2 (GlaxoSmithKline Intellectual Property Development Limited, priority 2016, dated 2021)
“And” between values parts separate entries of the source, which are not always exact repeats. Equal entries are not always repeated. Structures can show the parent of a compound that is named as a salt. Where two headings read alike, the source gives them in different places.

Experiments:
[1] = test system: erythroid progenitor cells (EPCs); assay: Fetal hemoglobin (HbF) ELISA in day 7 erythroid progenitor cells; format: cell-based, human; details: Homo sapiens, Erythroid progenitor cell, HbF ELISA, day 7 EPCs, 5 days; read-out: EPC ELISA (pEC50 category) (converted);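 also: for fetal hemoglobin induction normalized to vehicle-treated cells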
How it was run: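 HbF induction was read by anti-HbF sandwich ELISA (HRP/TMB, OD450) on lysates and normalized to vehicle-treated cells. Cells were day 7 erythroid progenitors derived from human bone marrow CD34+ cells, seeded at 1,000/well with 3 U/mL rhEPO. Compound was given for 5 days at 37 °C at final concentrations […].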

[2] = biological target: DNMT1 (Homo sapiens, UniProt P26358); assay: DNMT1 biochemical activity, breaklight assay and/or SPA assay
[3] = binned activity in either the breaklight or the SPA assay
[4] = binned activity in either the breaklight or the SPA assay, read-out: DNMT1 BioChemical (pIC50 category) (converted)
[5] = breaklight assay and/or SPA assay, repeated experimental runs, read-out: average pIC50 against DNMT1 (converted)

Sequence of DNMT1 (P26358 whole entry, looked up): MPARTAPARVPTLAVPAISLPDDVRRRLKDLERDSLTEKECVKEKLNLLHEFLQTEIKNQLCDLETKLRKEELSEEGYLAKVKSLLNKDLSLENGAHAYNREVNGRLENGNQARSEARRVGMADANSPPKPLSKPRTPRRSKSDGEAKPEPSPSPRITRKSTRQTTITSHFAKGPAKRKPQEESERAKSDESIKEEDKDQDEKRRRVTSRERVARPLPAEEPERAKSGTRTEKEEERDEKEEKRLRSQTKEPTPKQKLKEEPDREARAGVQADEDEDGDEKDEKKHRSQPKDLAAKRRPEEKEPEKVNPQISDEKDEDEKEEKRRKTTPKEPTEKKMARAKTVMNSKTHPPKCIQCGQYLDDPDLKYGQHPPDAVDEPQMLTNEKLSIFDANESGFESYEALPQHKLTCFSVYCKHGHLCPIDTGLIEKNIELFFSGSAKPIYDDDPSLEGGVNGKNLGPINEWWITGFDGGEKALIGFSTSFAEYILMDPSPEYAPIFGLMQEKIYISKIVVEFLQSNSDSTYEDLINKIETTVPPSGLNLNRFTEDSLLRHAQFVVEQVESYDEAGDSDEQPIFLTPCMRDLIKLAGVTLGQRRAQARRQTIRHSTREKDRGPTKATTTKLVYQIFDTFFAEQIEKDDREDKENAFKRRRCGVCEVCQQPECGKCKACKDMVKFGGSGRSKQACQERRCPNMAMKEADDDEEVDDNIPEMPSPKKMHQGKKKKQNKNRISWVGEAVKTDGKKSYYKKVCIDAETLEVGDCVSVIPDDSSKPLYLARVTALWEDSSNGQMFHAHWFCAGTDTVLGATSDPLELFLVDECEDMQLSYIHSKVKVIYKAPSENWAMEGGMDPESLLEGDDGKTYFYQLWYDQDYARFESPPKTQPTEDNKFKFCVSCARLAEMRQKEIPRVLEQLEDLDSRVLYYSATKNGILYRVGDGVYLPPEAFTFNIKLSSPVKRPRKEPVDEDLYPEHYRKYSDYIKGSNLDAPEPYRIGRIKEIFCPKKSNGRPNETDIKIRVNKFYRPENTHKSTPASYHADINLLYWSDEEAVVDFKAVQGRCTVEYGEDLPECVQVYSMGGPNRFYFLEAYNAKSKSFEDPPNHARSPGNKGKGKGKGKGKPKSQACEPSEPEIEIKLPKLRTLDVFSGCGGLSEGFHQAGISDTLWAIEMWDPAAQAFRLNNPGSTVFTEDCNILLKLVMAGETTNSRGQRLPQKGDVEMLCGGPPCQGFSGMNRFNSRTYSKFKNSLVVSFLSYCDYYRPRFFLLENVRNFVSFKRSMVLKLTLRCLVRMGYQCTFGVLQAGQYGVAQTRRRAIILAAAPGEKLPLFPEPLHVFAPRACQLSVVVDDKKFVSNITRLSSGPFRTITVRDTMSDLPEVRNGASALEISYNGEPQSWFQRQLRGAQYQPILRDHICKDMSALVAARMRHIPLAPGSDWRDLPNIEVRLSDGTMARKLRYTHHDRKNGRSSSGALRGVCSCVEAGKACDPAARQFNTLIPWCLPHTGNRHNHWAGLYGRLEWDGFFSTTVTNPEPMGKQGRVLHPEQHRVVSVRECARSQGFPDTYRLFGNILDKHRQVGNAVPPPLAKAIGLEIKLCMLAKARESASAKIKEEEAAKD

SMILES | EC50 [1] | DNMT1 BioChemical (pIC50 category) [2, 3] | IC50 [2, 4] | IC50 [2, 5]
CCc1c(C#N)c(SC(C(N)=O)c2ccccc2)nc(N(C)CC(=O)N2C[C@H](CO)[C@@H](O)C2)c1C#N (stereo partly drawn) [Example 664, 2-((3,5-dicyano-4-ethyl-6-((2-((3R,4R)-3-hydroxy-4-(hydroxymethyl)pyrrolidin-1-yl)-2-oxoethyl)(methyl)amino)pyridin-2-yl)thio)-2-phenylacetamide] | 1000 to 31600 nM | D (Category D: ≥6.5) |  | 
CCc1c(C#N)c(SC(C(N)=O)c2ccccc2)nc(N2CC[C@@H](OP(=O)(O)O)C2)c1C#N (stereo partly drawn) [Example 416, (3R)-1-(6-((2-amino-2-oxo-1-phenylethyl)thio)-3,5-dicyano-4-ethylpyridin-2-yl)pyrrolidin-3-yl dihydrogen phosphate] | 1000 to 31600 nM |  | 1000 to 31600 nM | 
CCc1c(Cl)c(SC(C(N)=O)c2ccccc2)nc(N2CCCN(C)CC2)c1Cl (stereo not drawn) [Example 165] | > 31600 nM |  | 316 to 1000 nM | 316 to 1000 nM and 631 nM
CCc1c(C#N)c(SC(C(N)=O)c2ccccc2)nc(N(C)CC(=O)N2CCNCC2)c1C#N (stereo not drawn) [Example 622, 2-((3,5-dicyano-4-ethyl-6-(methyl(2-oxo-2-(piperazin-1-yl)ethyl)amino)pyridin-2-yl)thio)-2-phenylacetamide] | < 316 nM | D (Category D: ≥6.5) |  | 
CCc1c(C#N)c(SC(C(N)=O)c2cccc(C(=O)c3ccccc3)c2)nc(N2CCCN(CCO)CC2)c1C#N (stereo not drawn) [Example 244, 2-(3-Benzoylphenyl)-2-((3,5-dicyano-4-ethyl-6-(4-(2-hydroxyethyl)-1,4-diazepan-1-yl)pyridin-2-yl)thio)acetamide] | < 316 nM |  | 316 to 1000 nM | 
COc1c(C#N)c(SCc2ccc(N(C)S(C)(=O)=O)cc2)nc(N2CCC(N)CC2)c1C#N [Example 683, N-(4-(((6-(4-aminopiperidin-1-yl)-3,5-dicyano-4-methoxypyridin-2-yl)thio)methyl)phenyl)-N-methylmethanesulfonamide hydrochloride] | < 316 nM | D (Category D: ≥6.5) |  | 316 to 1000 nM and 316 nM
CCc1c(C#N)c(SC(C(N)=O)c2ccccc2)nc(N2CCN(C3CCNCC3)CC2)c1C#N (stereo not drawn) [Example 13, 2-({3,5-dicyano-4-ethyl-6-[4-(piperidin-4-yl)piperazin-1-yl]pyridin-2-yl}sulfanyl)-2-phenylacetamide] | 316 to 1000 nM |  | 316 to 1000 nM | 
CCc1c(C#N)c(SCc2ccc(CNC(=O)CNC(=O)OC(C)(C)C)cc2)nc(N2CCCN(C)CC2)c1C#N [Example 78, tert-Butyl (2-((4-(((3,5-dicyano-4-ethyl-6-(4-methyl-1,4-diazepan-1-yl)pyridin-2-yl)thio)methyl)benzyl)amino)-2-oxoethyl)carbamate] | > 31600 nM |  | 316 to 1000 nM | ≥ 1000 nM
CCc1c(C#N)c(SCc2ccc(C(=O)NCCO)cc2)nc(N(C)C)c1C#N [Example 292, 4-(((3,5-Dicyano-6-(dimethylamino)-4-ethylpyridin-2-yl)thio)methyl)-N-(2-hydroxyethyl)benzamide] | 1000 to 31600 nM |  | 316 to 1000 nM | 
CCc1c(C#N)c(SC(C(N)=O)c2ccccc2)nc(N(C)CCN2CCC[C@@H]2CO)c1C#N (stereo partly drawn) [Example 479, 2-((3,5-dicyano-4-ethyl-6-((2-((R)-2-(hydroxymethyl)pyrrolidin-1-yl)ethyl)(methyl)amino)pyridin-2-yl)thio)-2-phenylacetamide] | < 316 nM | D (Category D: ≥6.5) |  | 
CCc1c(C#N)c(SC(C(N)=O)c2ccncc2)nc(N(C)C)c1C#N (stereo not drawn) [Example 27, 2-((3,5-dicyano-6-(dimethylamino)-4-ethylpyridin-2-yl)thio)-2-(pyridin-4-yl)acetamide] | > 31600 nM | D (Category D: ≥6.5) |  | 
CCc1c(C#N)c(SC(C(N)=O)c2ccc(F)cc2F)nc(N2CC[C@H](O)C2)c1C#N (stereo partly drawn) [Example 430] | 316 to 1000 nM | D (Category D: ≥6.5) |  | 
